Data published in US20240207216A1, “COMPOSITIONS AND METHOD FOR TREATING GUT PERMEABILITY CAUSED BY HYDROGEN SULFIDE PRODUCING BACTERIA” (UNM RAINFOREST INNOVATIONS, priority 2022, published 2024).
Each block holds one compound with its values, some of them ahead of it.

Tests used:
secreted TNF-α = assay: DSV-induced secreted TNF-α, Western blot of RAW cell culture supernatant; format: cell-based, murine; conditions: 200 μM, 3 h before DSV 4 h; DSV alone 38.09±5.188
Description: FIG. 12. LY294002 inhibits DSV-induced activation of PI3K/Akt/TNF pathway. (A) RAW cells were treated with LY at either 10 μM or 50 μM for one hour before infection with DSV for four hours. Cells were lysed and protein lysate was prepared. Fifty μg of protein lysate was separated on SDS-PAGE and analyzed for p-Akt, Akt, TNF, iNOS, p-p70S6K, and total p70S6K by Western blotting. Actin was used as a loading control. (B) Quantification of p-Akt-Akt Western blot. (C) Quantification of p-P70/P70 Western blot. (D) Quantification of TNF-α/actin Western blot. (E) Post-infection, RAW cell culture supernatant was collected and proteins were precipitated using ethanol precipitation. Proteins were resuspended in PBS and 50 μg of proteins were loaded on SDS-PAGE and secreted TNF-α was detected using TNF-α antibody. Actin was used as a loading control.
(§1) RAW 264.7 murine macrophage-like cells were grown in DMEM+10% FBS without any use of antibiotics or antimycotics. Cells were grown at 37° C. in a humidified incubator with 5% CO2. Prior to the day of infection, 8×10^5 cells were plated in a six-well plate and infected with DSV at multiplicity of infection 20 (MOI 20) for various times. For drug treatments, cells were incubated with LY294002 at 10 μM or 50 μM for one hour followed by DSV infection for 30 minutes or four hours. For TL2-C29 treatment, cells were incubated with the inhibitor at 200 μM for three hours followed by infection with DSV for four hours.
Cells were lysed in Lysis buffer containing protease and phosphatase inhibitors (Thermo Fisher Scientific, Inc., Waltham, MA) for 20 minutes at 4° C. Lysates were centrifuged at 12,000 rpm for five mins at 4° C. and supernatants were collected. Protein concentration in the supernatants was determined with Bradford reagent (Bio-Rad Laboratories, Inc., Hercules, CA). 50 μg of protein samples were run on SDS-PAGE (4-20% tris-glycine) and transferred to nitrocellulose membranes. Membranes were blocked in 5% milk in PBS-T (0.1% Tween 20) for 30 minutes followed by overnight incubation in primary antibodies in cold room. […]

p-Akt/Akt = assay: DSV-induced Akt phosphorylation, Western blot in RAW cells; format: cell-based, murine; conditions: 200 μM, 3 h before DSV 4 h; DSV alone 3.18±0.30
Description: as §1
(§2) Cells were lysed in Lysis buffer containing protease and phosphatase inhibitors (Thermo Fisher Scientific, Inc., Waltham, MA) for 20 minutes at 4° C. Lysates were centrifuged at 12,000 rpm for five mins at 4° C. and supernatants were collected. Protein concentration in the supernatants was determined with Bradford reagent (Bio-Rad Laboratories, Inc., Hercules, CA). 50 μg of protein samples were run on SDS-PAGE (4-20% tris-glycine) and transferred to nitrocellulose membranes. Membranes were blocked in 5% milk in PBS-T (0.1% Tween 20) for 30 minutes followed by overnight incubation in primary antibodies in cold room. All antibodies except iNOS were purchased from Cell Signaling Technology (Danvers, MA): Actin (4970), p-AktS473(4060), p-Akt T308(13038), Akt (9272), p-P70S6K (9205), P70S6K (2708, TNF-α (19948). iNOS antibody was purchased from Abcam (Cambridge United Kingdom). Antibodies were diluted as recommended by the manufacturer. The following day, blots were washed with PBS-T and incubated with secondary antibodies (Cell Signaling Technology, Danvers, MA) at room temperature for one hour (dilution of 1:2000) and developed using enhanced chemiluminescence HRP signal (Thermo Fisher Scientific, Inc., Waltham, MA).
(§3) All graphs were generated using PRISM 9.4.1 GraphPad Software Inc., San Diego, CA). Data is plotted as Mean±SEM relative to control. Each experiment was conducted at least three independent times. […]

iNOS = assay: DSV-induced iNOS expression, Western blot in RAW cells; format: cell-based, murine; conditions: 200 μM, 3 h before DSV 4 h; DSV alone 30.25±6.82
Description: as §1, §2, §3

TNF-α = assay: DSV-induced cellular TNF-α expression, Western blot in RAW cells; format: cell-based, murine; conditions: 200 μM, 3 h before DSV 4 h; DSV alone 24.67±2.51
Description: as §1, §2, §3

Snail = assay: DSV-induced Snail protein expression by Western blot; format: cell-based, Human; conditions: 100 nM, 2 h before DSV MOI 20 for 24 h; DSV alone 7.14±0.73
Description: FIG. 16. Rapamycin reduces DSV-induced Snail protein expression. Polarized Caco-2 cells were treated with 100 nM rapamycin for two hours, followed by DSV infection (MOI 20) for 24 hours. Cells were harvested and lysed. (A) Protein lysate was analyzed for Snail expression by Western blotting. (B) Quantitation of Snail expression from Western blot in (A). DSV: 7.14±0.73; DSV+Rapamycin: 3.10±0.74, **p<0.01.
Human colonic epithelial cells Caco-2 were purchased from the American Type Culture Collection (ATCC, Manassas, VA). Cells were grown in DMEM+20% FBS+penicillin and streptomycin (Thermo Fisher Scientific, Inc., Waltham, MA). Cells were grown at 37° C. in a humidified incubator with 5% CO2. To allow polarization and differentiation, cells were seeded at a density of 5×10^3 cells/well in 12-well 0.4 μm trans-well inserts for three weeks. Twenty-four hours before infection, growth medium was replaced with colorless medium (DMEM+20^0/o FBS) without antibiotics. […]
Cells were lysed in lysis buffer (Thermo Fisher Scientific, Inc., Waltham, MA; catalog #87787) containing protease and phosphatase inhibitors (Thermo Fisher Scientific, Inc., Waltham, MA; catalog #1861281) for 20 minutes at 4° C. with shaking. […] Protein concentration in the supernatants was determined with Bradford reagent (Bio-Rad Laboratories, Inc., Hercules, CA). […]

PI3K/Akt pathway = assay: DSV-induced PI3K/Akt signaling with receptor antagonists; format: cell-based, murine; conditions: pretreatment of cells before DSV
Description: PI3k/Akt pathway is activated downstream of receptors such as RTKs and G-protein coupled receptors and also by TLRs activation which is often observed in the case of infections with various bacteria. Thus, cells were treated with different TLR antagonists to check for the involvement of TLR 2, TLR 4, or TLR 5 in DSV-mediated activation of PI3K/Akt pathway. […] DSV-induced phosphorylation of AKT was inhibited by C29 (DSV:3.18±0.30; DSV+C29: 1.58±0.29, p<0.05, FIG. 14, FIG. 15A). […] PI3K/Akt is classically activated by a vast number of stimuli through receptor tyrosine kinases (RTK). Thus, tryphostin AS1478, a common tyrosine kinase inhibitor, was used as an antagonist to EGFR signaling to test whether DSV-induced PI3k/Akt/TNF/iNOS pathway was dependent on RTK-mediated signaling.

[1] = system: sulfate reducing bacteria; conditions: batch culture; cited from earlier work

SMILES: COc1cccc(C=Nc2cccc(C(=O)O)c2C)c1O [C29]
- secreted TNF-α, normalized to control (secreted TNF-α): 1.103±0.03408
- p-Akt/Akt, normalized to control (p-Akt/Akt): 1.58±0.29
- iNOS protein expression, normalized to control (iNOS): 2.32±1.48
- cellular TNF-α protein, normalized to control (TNF-α): 8.57±2.81

SMILES: CO[C@H]1C[C@@H]2CC[C@@H](C)[C@@](O)(O2)C(=O)C(=O)N2CCCC[C@H]2C(=O)O[C@H]([C@H](C)C[C@@H]2CC[C@@H](O)[C@H](OC)C2)CC(=O)[C@H](C)/C=C(\C)[C@@H](O)[C@@H](OC)C(=O)[C@H](C)C[C@H](C)/C=C/C=C/C=C/1C [Rapamycin, rapamycin]
- Snail expression from Western blot (Snail): 3.10±0.74

SMILES: c1ccc(Cn2c(Sc3ncnc4c3sc3ncccc34)nnc2-c2ccncc2)cc1 [TH1020]
- effect on DSV-induced PI3K/Akt signaling (PI3K/Akt pathway): Neither TLR4 antagonist TLR-IN-C34 nor TLR5 antagonist TH1020 had any discernable effect

SMILES: CC(=O)N[C@H]1[C@@H](OC(C)C)O[C@H](COC(C)=O)[C@@H](OC(C)=O)[C@@H]1OC(C)=O [TLR-IN-C34]
- effect on DSV-induced PI3K/Akt signaling (PI3K/Akt pathway): Neither TLR4 antagonist TLR-IN-C34 nor TLR5 antagonist TH1020 had any discernable effect

SMILES: [Mg+2].[O-][O-] [magnesium peroxide (MgO2), magnesium peroxide]
- number of sulfate reducing bacteria [1]: inhibited
- sulfate reducing rate (SRR) [1]: inhibited
- sulfide concentration [1]: inhibited

- effect on DSV-induced PI3K/Akt signaling (PI3K/Akt pathway): No inhibition
SMILES: COc1cc2ncnc(Nc3cccc(Cl)c3)c2cc1OC [tryphostin AS1478]
